The results in this text go back to patent publication US10730886B2, “Compound having effect of inhibiting platelet aggregation and salt thereof, and composition for preventing or treating thrombotic diseases, containing same” (SHIN POONG PHARMACEUTICAL CO., LTD., priority 2015, dated 2020).

Data set [1] relates to collagen-induced platelet aggregation, Human PRP. The experiment in a line: Collagen-induced platelet aggregation in human PRP (lumi-aggregometer). The note with it: collagen 2-5 μg/ml. In kind it is cell-based. As to the method: (§1) To investigate whether the candidate substance has inhibition selectivity for shear-stress-induced platelet aggregation, which is by a physical stimulus, […] experiment was conducted by activating platelets with physiological agonists—i.e., thrombin, collagen and ADP—to study the inhibitory effect of the candidate substance.
(§2) Human PRP (598.8 μl) was treated with 1.2 μl of the candidate substance per concentration (25, 100, 250 μM) and reacted at 37° C. for 3 minutes using a thermomixer. Then, PRP (495 μl) was put in the aggregometer cuvette and preincubated for 1 minute, followed by treatment with platelet aggregation-inducing reagent, thrombin (0.6-0.8 U/ml), collagen (2-5 μg/ml), or ADP (adenosine diphosphate, 15-20 μM) at the minimum concentration causing maximum aggregation. The degree of aggregation of the platelets was measured by a turbidity change using a lumi-aggregometer (Chrono-Log Co., USA). The turbidity of the PRP was considered as 0%, and the turbidity of the PPP was considered as 100%. During the measurement, the reaction mixture was continuously stirred at 1,000 rpm with a silicone-coated magnetic stir bar.

Data set [2] concerns plasma. Kind of data set: Plasma coagulation time, Activated Partial Thromboplastin Time (aPTT). In kind it is biochemical. The settings on record: plasma treated 3 minutes. How it is done:
(§3) In order to separate plasma, blood was collected with 3.2% sodium citrate as an anticoagulant. Whole blood was centrifuged at 2000 g for 20 minutes to obtain plasma. After treating the plasma with the test substances for 3 minutes, plasma coagulation time was measured. For plasma coagulation time, Activated Partial Thromboplastin Time (aPTT) and Prothrombin Time (PT) were measured using BBL® Fibrometer (Becton Dickinson, Cockeysville, Md.). For measurement of aPTT, the plasma was treated with aPTT reagents in fibrometer cup and reacted at 37° C. for 3 min. After the reaction, CaCl2 was added and blood coagulation time was measured immediately. For the measurement of PT, PT reagent was added to warmed plasma, and blood coagulation time was measured immediately. DTI, known to prolong plasma coagulation time, was used as a control.

The subject of data set [3] is ADP-induced platelet aggregation, Human PRP. Kind of data set: ADP-induced platelet aggregation in human PRP (lumi-aggregometer). In kind it is cell-based. The note with it: ADP 15-20 μM. How it is done:
as §1, §2

In data set [4] the test system is ICR mouse. Kind of data set: Bleeding side effect by repeated administration (tail bleeding time). The settings on record: 50 mg/kg oral once daily for 7 days.
Experimental: One hour after the last administration, the mice were anesthetized by breathing, and the 4 mm portion from the tail tip of the mice was cut. Then, the tail tip of the mice was immersed in a transparent 15-ml tube containing the pre-prepared 37° C. saline. The time when blood was not spread any more and the bleeding stopped was measured.
Data set [5] deals with human liver cells (HepG2). Kind of data set: Cytotoxicity in human liver cells HepG2 (WST-1). It is filed as cell-based. The settings on record: HepG2, 250 μM, 18 hours. As to the method: 5-3. Evaluation of Cytotoxicity of Candidate Substances Using Human Liver Cells
Experiments were conducted to evaluate cytotoxicity in human liver cells (HepG2). HepG2 cells, which are human liver carcinoma cell lines, were cultured in DMEM (Dulbecco's minimum essential medium) supplemented with 10% FBS (fetal bovine serum) and 1% Penicillin/Streptomycin at 37° C. and 5% CO2. The cells were cultured in a 48 well plate at 4×10^4 cells/well for 24 hours and then used in the experiments. The HepG2 cells were treated with the candidate substances (250 μM) for 18 hours, and then the medium was removed and WST-1 was added, followed by shading for 3 hours for reaction. After 3 hours, the supernatant was taken and absorbance was measured at 450 nm. Cell viability was calculated by comparing the absorbance measured after adding WST-1 to HepG2 cells not treated with the candidate substances. Acetaminophen (40 mM) was used as a control.

The subject of data set [6] is human vascular endothelial cells (EA.hy926). The experiment in a line: Cytotoxicity in EA.hy926 cell line (MTT assay). It is filed as cell-based. The settings on record: 24 hours. As to the method:
5-1. Evaluation of Cytotoxicity of Candidate Substances Using EA.hy926 Cell Line
Experiments were conducted to determine the cytotoxicity of candidate substances in human vascular endothelial cells (EA.hy926). EA.hy926 was passaged in DMEM (Dulbecco's […]) supplemented with 10% fetal bovine serum (FBS) at 5% CO2/37° C. The cells were cultured in a 96 well plate at 1×10^4 cells/well for 48 hours, washed twice with DMEM and then cultured for 24 hours. Candidate substances were prepared at final concentrations of 25 and 100 μM, applied to the wells at 200 μl per well and cultured for 24 hours. MTT assay was used to measure the absorbance at 570 nm after colorization in violet.

Data set [7] has as its system Sprague-Dawley rats. Kind of data set: Bleeding side effect (tail bleeding time) after single oral administration. The settings on record: rat, tail cut 1 hour after administration. It is filed as in vivo.
Data set [8] deals with ICR mice. The experiment in a line: 2-week repeat-dose toxicity study. It is filed as in vivo. The note with it: oral 100, 300 and 1000 mg/kg once a day for 2 weeks. How it is done: (§4) After oral administration of vehicle (0.5% methylcellulose) or the candidate substances at low dose, medium dose, and high dose (100, 300, 1000 mg/kg) to ICR mice (female, male, 18 to 26 g) once a day for 2 weeks, the NOAEL values of the candidate substances were calculated by observing and recording mortality, body weight change, clinical observations, food and drinking water consumption, gross necropsy findings, histopathological evaluation of abnormal organ, and organ weights.

A short description of data set [9]: 2-week repeat-dose toxicity study. It is filed as in vivo. The note with it: both sexes, mouse, in vivo; ICR mice, oral 100, 300, 1000 mg/kg once a day for 2 weeks; read-out: NOAEL (No observed adverse effect level). How it is done: as §4
Data set [10] relates to plasma. Kind of data set: Plasma coagulation time, Prothrombin Time (PT). The settings on record: plasma treated 3 minutes. In kind it is biochemical. As to the method:
as §3

The NOAEL is the highest tested level that showed no adverse finding. For `CCc1occc(=O)c1OC(=O)c1ccc(O)c(OC)c1` [Example 13, 2-Ethyl-4-oxo-4H-pyran-3-yl 4-hydroxy-3-methoxybenzoate], the “Degree of platelet aggregation (%, Mean ± SEM)” value in data set [1] (25 μM) is 90.0 ± 3.0%; in data set [1] (100 μM) it was 79.5 ± 0.5%; in data set [1] (250 μM), 85.5 ± 3.5%; in data set [3] (compound 25 μM), 75.5 ± 1.5%; in data set [3] (compound 100 μM), 75.0 ± 1.0%; in [3] (compound 250 μM) it was 71.5 ± 6.5%. In addition, the “plasma coagulation time - aPTT, Time” value in [2] (25 μM) turned out to be 24.7 ± 1.0 s; in data set [2] (100 μM) it was 26.6 ± 1.8 s; in data set [2] (250 μM), 27.5 ± 1.7 s. Moreover, the results for the “Bleeding time” value in data set [4], in data set [7] (25 μM (so in the source)) and in [7] (100 μM (so in the source)) were 1.6 ± 0.4 min, 6.5 ± 0.6 min and 7.2 ± 0.3 min, respectively. In data set [5], the “Cell vaibility (%)” value is 98.3 ± 5.5%. Further, the “Cell viability (%)” value worked out at 100.1 ± 1.9% in [6] (EA.hy926, 25 μM) and 94.2 ± 2.0% in data set [6] (EA.hy926, 100 μM). The “findings in body weight change, clinical observations, food and drinking water consumption, gross necropsy findings, and organ weights” value in data set [8] was “no abnormal findings were observed”. Also, the mortality result in data set [8] is on record as “no dead animals were observed”. In [9], the NOAEL at 2 weeks was > 1000 mg/kg. Also, the results for the “plasma coagulation time - PT, Time” value in data set [10] (25 μM), in [10] (100 μM) and in [10] (250 μM) were 11.0 ± 0.3 s, 10.6 ± 0.2 s and 10.8 ± 0.3 s, respectively.

As to `COc1cc(C(=O)Oc2c(C)occc2=O)ccc1O` [Example 14, 2-Methyl-4-oxo-4H-pyran-3-yl 4-hydroxy-3-methoxybenzoate], the “Degree of platelet aggregation (%, Mean ± SEM)” value in data set [1] (25 μM) was 82.0 ± 1.7%; in data set [1] (100 μM), 80.0 ± 1.7%; in data set [1] (250 μM), 92.0 ± 2.0%; in data set [3] (compound 25 μM) it was 74.5 ± 2.5%; in [3] (compound 100 μM), 75.0 ± 3.0%; in [3] (compound 250 μM), 63.5 ± 5.5%. For the same molecule, the “plasma coagulation time - aPTT, Time” value in data set [2] (25 μM) was 27.0 ± 0.4 s; in data set [2] (100 μM) it was 26.7 ± 0.2 s; in data set [2] (250 μM), 26.3 ± 1.7 s. Moreover, the results for the “Bleeding time” value in data set [4], in data set [7] (25 μM (so in the source)) and in data set [7] (100 μM (so in the source)) were 1.6 ± 0.3 min, 6.7 ± 0.9 min and 6.3 ± 0.6 min, respectively. For the same molecule, the “Cell vaibility (%)” value in [5] is on record as 87.3 ± 2.7%. The “Cell viability (%)” value in data set [6] (EA.hy926, 25 μM) came to 99.6 ± 1.7%; in data set [6] (EA.hy926, 100 μM), 99.5 ± 1.6%. Moreover, the “findings in body weight change, clinical observations, food and drinking water consumption, gross necropsy findings, and organ weights” value in data set [8] is “no abnormal findings were observed”. Further, the mortality result in data set [8] is given as “no dead animals were observed”. Moreover, the NOAEL at 2 weeks in data set [9] is > 1000 mg/kg. Also, the “plasma coagulation time - PT, Time” value was determined as 10.1 ± 0.3 s in data set [10] (25 μM), 10.1 ± 0.0 s in data set [10] (100 μM) and 11.1 ± 0.1 s in [10] (250 μM).
